The record followed here is patent US6841537B1, “Combination therapy using nucleic acids and conventional drugs” (Protiva Biotherapeutics Inc., priority 1998, dated 2005).

Molecules are shown by their SMILES.

In assay [1] the test system is SK-OV-3 cells. Nature of the assay: Cell cycle arrest by aphidicolin, propidium iodide staining and flow cytometry. As to conditions: (+/−) culture. Format: cell-based, human. As for the experimental part:
SK-OV-3 or HeLa-luc cells were seeded at a density of 30,000 cells per well in a 24 well plate in growth media 24 hours prior to treatment with aphidicolin. Aphidicolin (Sigma) was reconstituted in phosphate buffered saline containing 0.5% DMSO. Cells were incubated with aphidicolin at a final concentration of 5 μg/mL in 1 mL of media per well for 16 hours prior to transfection. Transfection was accomplished by the addition of 0.5 μg of formulated DNA to each well.
The cell cycle status of cultures was determined by flow cytometry of permeabilized cells that were stained with propidium iodide. Prior to harvesting, media was aspirated and the cells were washed twice with 2 mL phosphate buffered saline (PBS). […] 5,000 cells were analyzed in the FL2 channel (λemission=585+/−21 nm) of a FACSort flow cytometer (Becton-Dickinson, San Jose, Calif.) equipped with an Ar- ion laser (λexcitation=488 nm)
In an initial study, the effectiveness of a non-lethal concentration of aphidicholin to arrest SK-OV-3 cells was determined. A sub-confluent asynchronous cell culture contained approx. 75%, 5% and 20% of cells in G1, S and M phase, respectively, as measured by staining with propidium iodide (PI) followed by flow cytometry (FIG. 1(A)). […]

Assay [2] relates to SK-OV-3 cells. Put plainly: Uptake of YOYO-1 labeled plasmid DNA lipoplexes by flow cytometry. The assay is classed as cell-based, human. As to conditions: aphidicolin arrested vs control cells. As for the experimental part: SK-OV-3 or HeLa-luc cells were seeded at a density of 30,000 cells per well in a 24 well plate in growth media 24 hours prior to treatment with aphidicolin. Aphidicolin (Sigma) was reconstituted in phosphate buffered saline containing 0.5% DMSO. Cells were incubated with aphidicolin at a final concentration of 5 μg/mL in 1 mL of media per well for 16 hours prior to transfection. Transfection was accomplished by the addition of 0.5 μg of formulated DNA to each well. […]
Lipoplexes were prepared using YOYO-1 labeled DNA and incubated with cells. […] Fluorescence was measured in the FL1 channel (λemission=530+/−15 nm) of a FACSort flow cytometer (Becton-Dickinson, San Jose, Calif.) equipped with an Ar- ion laser ([…]). Data was collected from 10,000 cells and analyzed for fluorescence using CellQuest software.
In order to determine whether aphidicolin treatment affects cellular processes related to transgene expression, effects on DNA uptake and gene expression were studied. It has been shown previously that fluorescently labeled DNA can be formulated as lipoplexes and the uptake of lipoplexes can be measured by flow cytometry (see, Zabner, et al., J. Biol. Chem., 270:18997-19007 (1995); and Tseng, et al., Biotechnol. Bioeng., 50:548-554 (1996);). […] The rate of lipoplex uptake per cell was determined by flow cytometry. […]

The test system of the next assay is HeLa-luc cells. Nature of the assay: Effect of aphidicolin on constitutive CMV driven luciferase gene expression. Format: cell-based, human. Conditions: 0, 6 and 24 hours after arrest vs untreated control cells. The protocol:
SK-OV-3 cells (human ovarian tumor cells, ATCC) were cultured in RPMI 1640 media (StemCell Technologies, Vancouver, B.C.) supplemented with 10% fetal bovine serum (Intergen). HeLa-luc cells were stably transfected with a luciferase reporter plasmid and cultured in Dulbecco's modified Eagle medium (StemCell Technologies, Vancouver, B.C.) supplemented with 10% fetal bovine serum and 400 μg/mL Geneticin (Gibco BRL). […]
(§1) Luciferase assays were performed using the Luciferase Assay System kit (Promega, Madison, Wis.) according to the manufacturer's protocol. […] A standard curve was determined by assaying 20 μL of serial dilutions of a 1 mg/mL luciferase standard (Boehringer Mannheim). […] Absorbance was monitored at 570 nm (Dynatech MR5000 plate reader) and protein content calculated using a standard curve of varying concentrations of BSA.
To determine the effect of aphidicolin-mediated cell cycle arrest on the transcriptional and translational machinery of the cell, a clonal HeLa cell line stably transfected with a CMV driven luciferase expression cassette (Song, Inex Pharmaceuticals, unpublished) was analyzed. […]

Assay [3] has as its system SK-OV-3 cells. Put plainly: Lipid mediated transfection (luciferase activity) in aphidicolin treated cells. Format: cell-based, human. As for the experimental part: Lipoplexes were prepared as follows: All reagents were sterile and cooled to 4° C. prior to complex preparation. A solution containing 62 μM dioleoyldimethylammonium chloride:1,2-sn-dioleoylphosphatidylethanolamine (DODAC:DOPE) large unilamellar vesicles (LUVs) and a solution containing 10 μg/mL plasmid DNA were prepared in distilled water. The DNA was added to an equal volume of lipid dropwise, while vortexing. The solution was incubated on ice for 30 minutes prior to transfection. The resulting lipoplexes contained a final DNA concentration of 0.5 μg/100 μL and the cationic lipid:DNA (+:−) charge ratio was 1:1.
Plasmid containing a therapeutic gene was encapsulated as SPLP using the detergent dialysis method of INEX 351. […]
as §1
An initial experiment was performed to determine whether lipid mediated transfection was affected by the cell cycle status of SK-OV-3 cells in vitro. […] Luciferase activity was measured after 24 hrs of continuous exposure to lipoplexes. […]

The test system of assay [4] is MCA 207 tumor. Put plainly: Combination therapy: OncoTCS then i.v. INEX 324 with pINEX-IL-12, tumor size. Conditions: subtherapeutic dose (OncoTCS 0.5 mg/kg i.v.) before INEX 324 i.v. 100 μg DNA. The assay is classed as in vivo, C57 BL/6 mice. As for the experimental part: C57 BL/6 mice are seeded subcutaneously with MCA 207 tumor cells. Tumor seeding is performed by standard techniques. Mice were seeded subcutaneously on the hip flank with 100,000 MCA-207 fibrosarcoma tumor cells by sub-cutaneous injection on day zero.
On days 7-10, when tumors had developed to useable sizes, mice were injected i.v. via tail vein with approximately 0.5 mg/kg of OncoTCS (200 μL).
At 8, 16, 24, 30, 36, 42 or […] after OncoTCS treatment, the mice were injected i.v. via tail vein with INEX 324 (100 μg DNA pINEX-1L-12 with about 500 μg lipid all in about 200 μL total volume). Control mice received HBS.

The subject of assay [5] is MCA 207 tumor. Put plainly: Combination therapy: OncoTCS then i.v. INEX 303 with pINEX-TK10 plus ganciclovir, tumor size. Format: in vivo, C57 BL/6 mice. Conditions: subtherapeutic pretreatment (OncoTCS 0.5 mg/kg i.v.) before INEX 303 pINEX-TK10 i.v. and ganciclovir i.p. As for the experimental part: C57 BL/6 mice are seeded subcutaneously with MCA 207 tumor cells. Tumor seeding is performed by standard techniques. Mice are seeded subcutaneously on the hip flank with 100,000 MCA-207 fibrosarcoma tumor cells by […] injection on day zero. The tumor cells are cultivated and prepared according to standard techniques using RPMI media with 10% Fetal Bovine Serum (see, for example, Current Protocols in Molecular Biology, Eds. Ausubel, F. M., et al.)
At 8, 16, 24, 30, 36, 42 or […] after OncoTCS treatment, the mice are injected i.v. via tail vein with INEX 303 containing pINEX-TK10 prepared as described herein (100 μg DNA with about 500 μg lipid all in about 200 μL total volume). Control mice receive HBS.
1 mg ganciclovir, which is in 200 μL PBS (approximately 50 mg/kg; commercially available from Hoffman La Roche) is administered by intraperitoneal injection 12 h and 24 h after SPLP administration.

For another assay, the system named is B16 cells. Put plainly: Luciferase activity in i.p. tumors after i.p. INEX 324 following OncoTCS. The assay is classed as in vivo, C57 mice. Conditions: OncoTCS 0.5 mg/kg i.v. 24 hours before INEX 324 i.p. 20 micrograms. As for the experimental part:
[…] are seeded intraperitoneally with about 100,000 B16 cells. On day 7, 12 mice are injected i.v. via the tail vein with about 0.5 mg/kg of OncoTCS (vincristine sulfate encapsulated in sphingomyelin-containing TCS) in about 200 microliters. 12 control mice are not treated with OncoTCS. 24 hours later, all mice are injected i.p. with 20 micrograms of INEX 324 (TCS containing luciferase plasmid pINEX L018) in 500 microliters. Tumors are harvested 6, 12, 24 and 48 hours later, fast frozen, and stored at −70° C. until analyzed for luciferase activity. The frozen organs are then thawed at room temperature. 600 microliters of 1× cell culture lysis buffer (Promega) is added and the samples are homogenized in a FASTPREP homogenizer for 20 sec. at speed 4.0. The samples are centifuged for 2 min. at 10,000 g, and 20 microliters of the supernatant is assayed for luciferase activity.

For the compound `C[C@@]1(CO)[C@H](O)CC[C@@]2(C)[C@H]1CC[C@H]1C[C@@H]3C[C@@]12CC[C@]3(O)CO` [aphidicolin, Aphidicolin], in the assay with SK-OV-3 cells [1] (16 hrs after removal of aphidicolin block), the “cells in the G2/M phase” value is given as “approximately 85%”. Besides, the “cells that had undergone mitotic division and progressed into the G1 phase” value with SK-OV-3 cells [1] (within 22 hrs after removal of aphidicolin block) is given as roughly 45%. In addition, the “effect of cell cycle arrest on internalization of lipoplexes” value in the assay with SK-OV-3 cells [2] is “does not affect the internalization of lipoplexes”. Also, the “effect on level of luciferase gene expression” value with HeLa-luc cells is recorded as “did not significantly affect”. The “decrease in luciferase gene expression” value with SK-OV-3 cells [3] ((+/+) culture arrested in G1, 24 hrs continuous exposure to DODAC:DOPE lipoplexes, vs asynchronous control) stood at 20 fold. Moreover, the “luciferase expression vs control asynchronous culture” value with SK-OV-3 cells [3] ((+/−) culture, 24 hrs exposure to lipoplexes) is reported as “did not differ significantly”.

Take `CC[C@]1(O)C[C@H]2CN(CCc3c([nH]c4ccccc34)[C@@](C(=O)OC)(c3cc4c(cc3OC)N(C=O)[C@H]3[C@@](O)(C(=O)OC)[C@H](OC(C)=O)[C@]5(CC)C=CCN6CC[C@]43[C@@H]65)C2)C1` [vincristine]: the “effect on therapeutic effect of pINEX-IL-12 in INEX 324” value in the assay with MCA 207 tumor [4] is “greatly enhances the therapeutic effect”. Besides, the “tumor growth vs HSV-TK/ganciclovir system alone” value with MCA 207 tumor [5] is “inhibits growth of tumors and promotes tumor regression to a significantly greater degree”. Besides, the transfection of tumors result in the assay on B16 cells was “transfection of neoplastic sites”.
